Values of other authors, collected in US20220378861A1, “COMPOSITIONS AND METHODS FOR DELIVERING CANNABINOIDS USING MICRONEEDLE DEVICES TO THE SKIN” (AQUAVIT PHARMACEUTICALS, INC., priority 2019, published 2022).

Details: oral absorption, after extensive first pass liver metabolism

CCCCCc1cc(O)c2c(c1)OC(C)(C)[C@@H]1CCC(C)=C[C@@H]21 [THC, tetrahydrocannabinol]
bioavailability to the systemic circulation: 6%
